{
  "source": "patent US8709396B2",
  "about": "“Method and composition for attracting arthropods by volatizing an acid” (Premark FEG L.L.C., priority 2002, dated 2014)",
  "system": "Aedes aegypti (AE) mosquitoes",
  "assay": "olfactometer two-stimulus choice test, average percent of mosquitoes attracted",
  "assay_type": "in vivo",
  "settings": "for attraction of mosquitoes, result in words: olfactometer, AE mosquitoes, summary statements of the text",
  "description": "100 Aedes aegypti (AE) mosquitoes were placed into an olfactometer unit. For each test, the mosquitoes were exposed to two sets of stimuli for a collection period of 3 minutes. The mosquitoes could choose between the stimuli or not respond.\nFor the first test, ferric chloride hexahydrate was impregnated on diatomaceous earth and was activated with a moisture containing substance to form the first stimulus center. This material released water and trace amounts of hydrochloric acid, HCl. The second stimulus center in this test was a blank (no chemical stimulus).\nFor the second test, dry carbon dioxide was fed at 5 ml/min from a standard gas cylinder as the first stimulus center. The second stimulus center in this test was a blank (no chemical stimulus).\nFor the third test, ferric chloride hexahydrate was impregnated on diatomaceous earth and was activated with a moisture containing substance to form the first stimulus center. This material released water and trace amounts of hydrochloric acid, HCl. The second stimulus center was dry carbon dioxide fed at 5 ml/min from a standard gas cylinder.\nAs with Example 1, 100 AE mosquitoes were placed into an olfactometer unit. For each test, the mosquitoes were exposed to two sets of stimuli for a collection period of 3 minutes. The mosquitoes could choose between the stimuli or not respond.\nFor the first test, dry carbon dioxide was fed at 5 ml/min from a standard gas cylinder as the first stimulus center. The second stimulus center in this test was a blank (no chemical stimulus).\nFor the second test, ferric chloride hexahydrate impregnated on diatomaceous earth and sodium bicarbonate powder were contained in a sachet. The sachet was activated by combining the two powders stimulating a chemical reaction that released carbon dioxide, water and trace amounts of hydrochloric acid, forming the first stimulus center. The reaction produces by-product water that stimulates hydrochloric acid production from the ferric chloride. The sachet was designed to release CO2 at a rate of 5 ml/min over the collection period. The second stimulus center in this test was a blank (no chemical stimulus).\nFor the third test, a sachet containing ferric chloride hexahydrate impregnated on diatomaceous earth and sodium bicarbonate powder, similar to the sachet used in the second test, was activated with a moisture-containing substance to release carbon dioxide water and trace amounts of hydrochloric acid, forming the first stimulus center. The reaction produces by-product water that stimulates hydrochloric acid production from the ferric chloride. The second stimulus center was carbon dioxide fed at 5 ml/min from a standard gas cylinder.\nAs with Examples 1 and 2, 100 AE mosquitoes were placed into an olfactometer unit. For each test, the mosquitoes were exposed to two sets of stimuli for a collection period of 3 minutes. The mosquitoes could choose between the stimuli or not respond.\nFor the first test, ferric chloride hexahydrate impregnated on a diatomaceous earth was activated with a moisture containing substance to form the first stimulus center. This material released water and trace amounts of hydrochloric acid, HCl. The second stimulus center in this test was a blank (no chemical stimulus).\nThe sachet was activated by combining the two powders stimulating a chemical reaction that released carbon dioxide, water and trace amounts of hydrochloric acid, forming the first stimulus center. The reaction produces by-product water that stimulates hydrochloric acid production from the ferric chloride. The sachet was designed to release carbon dioxide at a rate of 5 ml/min. The second stimulus center in this test was a blank.\nFor the third test, a sachet identical to that used in the second test and containing ferric chloride hexahydrate impregnated on diatomaceous earth and sodium bicarbonate powder was activated, forming the first stimulus center.",
  "data": [
    {"smiles": "O=C=O", "note": "[CO2 (Dry), carbon dioxide]", "values": [
      {"measurement": "Stimulant 2 - Avg. % attracted", "setting": "100 AE mosquitoes, 3 min, first stimulus center Activated Ferric Chloride", "result": 12, "unit": "%"},
      {"measurement": "Stimulant 2 - Avg. % attracted", "setting": "100 AE mosquitoes, 3 min, first stimulus center CO2/HCl/H2O Sachet", "result": 2, "unit": "%"},
      {"measurement": "Stimulant 1 - Avg. % attracted", "setting": "100 AE mosquitoes, 3 min collection, second stimulus center blank (Examples 1-3)", "result": 21, "unit": "%"},
      {"measurement": "Stimulant 2 - Avg. % attracted", "setting": "Example 4: CO2 5 mL/min, 3 min, first stimulus center CO2 flowing over water surface", "result": 7, "unit": "%"},
      {"measurement": "Stimulant 1 - Avg. % attracted", "setting": "Example 4: dry CO2 5 mL/min through tube or cartridge, 100 AE mosquitoes, 3 min, second stimulus center blank", "result": 15, "unit": "%"},
      {"measurement": "attraction of mosquitoes, result in words", "setting": "listed as CO2 (dry)", "result": "is an attractant for mosquitoes"},
      {"measurement": "attraction of mosquitoes, result in words", "setting": "listed as carbon dioxide", "result": "did not draw significant numbers"}
    ]}
  ]
}
